Consider five compounds from patent EP0454367B1, “Growth hormone releasing factor analogs” (ELI LILLY AND COMPANY, priority 1990, dated 1991).

Starred links: 1 amine or outer side, 2 acyl side, 3 side chain; linkers in the order of their positions; H or OH if unused. Non-standard residues stand in square brackets, D forms with d. Residues, ends and D or L forms follow the SMILES beside them. *: point of attachment. X3 = O=C([C@H](Cc1ccc(O)cc1)N(CC(O)CO)[*:1])[*:2]; X2 = C[C@@H](C(=O)[*:2])N(CC(O)CO)[*:1]; X1 = O=C([C@@H]1CCCN1CC(O)CO)*; NMeA = CN[C@@H](C)C(=O)O

The assay concerns the target T1, Rat Pituitary Cells (Rattus norvegicus, UniProt Q02644).
T1 sequence (Q02644 23-464): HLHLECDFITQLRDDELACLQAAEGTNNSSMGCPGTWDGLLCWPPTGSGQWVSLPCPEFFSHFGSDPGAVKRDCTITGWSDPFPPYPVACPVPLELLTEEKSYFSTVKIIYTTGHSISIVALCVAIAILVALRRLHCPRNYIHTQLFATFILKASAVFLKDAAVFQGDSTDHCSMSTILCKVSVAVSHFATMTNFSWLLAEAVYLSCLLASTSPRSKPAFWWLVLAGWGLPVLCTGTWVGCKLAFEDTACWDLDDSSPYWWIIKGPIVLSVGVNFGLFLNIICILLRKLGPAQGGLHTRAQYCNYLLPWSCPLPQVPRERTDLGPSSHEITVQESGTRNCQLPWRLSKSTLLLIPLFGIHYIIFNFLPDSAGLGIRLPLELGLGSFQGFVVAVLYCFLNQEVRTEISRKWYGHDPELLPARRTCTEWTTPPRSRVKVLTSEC
The experiment in a line: GRF-analog mediated GH secretion from rat pituitary cells (method of Heiman et al.). It counts as cell-based. The conditions noted are these: EC50 [R^12,T^15,R^21,L^27]hGRF(1-29)NH2 / EC50 analog. Here is the method:
The polypeptide compounds of the invention may be assayed in numerous systems. One in vivo assay is carried out in sodium pentobarbital-anesthetized rats. Wehrenberg et al., Biochem. Biophys. Res. Commun. 109:382 (1982). Growth hormone release is measured in vitro with rat anterior pituitary cells. Heiman et al., Endocrinol. 116:410 (1985). Assays are also performed in wether lambs as described in the Examples provided hereinafter.
Various bGRF peptide analogs were synthesized by the solid phase synthesis method as described in U.S. Patent 4,617,149. The compounds were assayed in rat pituitary cells by the method of Heiman et al., Endocrinol. 116:410 (1985). The analogs are based on the sequence of the first 29 amino acids of human growth hormone releasing factor with the substitutions listed.

In the case of `CC[C@H](C)[C@H](NC(=O)[C@H](C)NC(=O)[C@H](CC(=O)O)NC(=O)[C@H](C)NC(=O)[C@H](Cc1ccc(O)cc1)NC(=O)[C@H](C)NCC(O)CO)C(=O)N[C@@H](Cc1ccccc1)C(=O)N[C@H](C(=O)N[C@@H](CC(N)=O)C(=O)N[C@@H](CO)C(=O)N[C@@H](Cc1ccc(O)cc1)C(=O)N[C@@H](CCCNC(=N)N)C(=O)N[C@@H](CCCNC(=N)N)C(=O)N[C@H](C(=O)N[C@@H](CC(C)C)C(=O)N[C@H](C(=O)N[C@@H](CCC(N)=O)C(=O)N[C@@H](CC(C)C)C(=O)N[C@@H](CO)C(=O)N[C@@H](C)C(=O)N[C@@H](CCCNC(=N)N)C(=O)N[C@@H](CCCNC(=N)N)C(=O)N[C@@H](CC(C)C)C(=O)N[C@@H](CC(C)C)C(=O)N[C@@H](CCC(N)=O)C(=O)N[C@@H](CC(=O)O)C(=O)N[C@H](C(=O)N[C@@H](CC(C)C)C(=O)N[C@@H](CO)C(=O)N[C@@H](CCCNC(=N)N)C(N)=O)[C@@H](C)CC)[C@@H](C)O)C(C)C)[C@@H](C)O` (some centres unmarked) [DHP[A^0,R^12,T^15,R^21,L^27]hGRF(1-29)NH2] (H-[X2]YADAIFTNSYRRVLTQLSARRLLQDILSR-NH2), the “Relative Potency (% of std)” value was “.335 % of std”. The value for `CC[C@H](C)[C@H](NC(=O)[C@H](C)NC(=O)[C@H](CC(=O)O)NC(=O)[C@H](C)NC(=O)[C@H](Cc1ccc(O)cc1)NC(=O)[C@@H]1CCCN1CC(O)CO)C(=O)N[C@@H](Cc1ccccc1)C(=O)N[C@H](C(=O)N[C@@H](CC(N)=O)C(=O)N[C@@H](CO)C(=O)N[C@@H](Cc1ccc(O)cc1)C(=O)N[C@@H](CCCNC(=N)N)C(=O)N[C@@H](CCCNC(=N)N)C(=O)N[C@H](C(=O)N[C@@H](CC(C)C)C(=O)N[C@H](C(=O)N[C@@H](CCC(N)=O)C(=O)N[C@@H](CC(C)C)C(=O)N[C@@H](CO)C(=O)N[C@@H](C)C(=O)N[C@@H](CCCNC(=N)N)C(=O)N[C@@H](CCCNC(=N)N)C(=O)N[C@@H](CC(C)C)C(=O)N[C@@H](CC(C)C)C(=O)N[C@@H](CCC(N)=O)C(=O)N[C@@H](CC(=O)O)C(=O)N[C@H](C(=O)N[C@@H](CC(C)C)C(=O)N[C@@H](CO)C(=O)N[C@@H](CCCNC(=N)N)C(N)=O)[C@@H](C)CC)[C@@H](C)O)C(C)C)[C@@H](C)O` (some centres unmarked) [DHP[P^0,R^12,T^15,R^21,L^27]hGRF(1-29)NH2] (X1-YADAIFTNSYRRVLTQLSARRLLQDILSR-NH2) was “.13 % of std”; that for `CC[C@H](C)[C@H](NC(=O)[C@H](C)NC(=O)[C@H](CC(=O)O)NC(=O)[C@H](C)NC(=O)[C@H](Cc1ccc(O)cc1)NC(=O)[C@@H]1CCCN1C(=O)[C@@H]1CCCN1CC(O)CO)C(=O)N[C@@H](Cc1ccccc1)C(=O)N[C@H](C(=O)N[C@@H](CC(N)=O)C(=O)N[C@@H](CO)C(=O)N[C@@H](Cc1ccc(O)cc1)C(=O)N[C@@H](CCCNC(=N)N)C(=O)N[C@@H](CCCNC(=N)N)C(=O)N[C@H](C(=O)N[C@@H](CC(C)C)C(=O)N[C@H](C(=O)N[C@@H](CCC(N)=O)C(=O)N[C@@H](CC(C)C)C(=O)N[C@@H](CO)C(=O)N[C@@H](C)C(=O)N[C@@H](CCCNC(=N)N)C(=O)N[C@@H](CCCNC(=N)N)C(=O)N[C@@H](CC(C)C)C(=O)N[C@@H](CC(C)C)C(=O)N[C@@H](CCC(N)=O)C(=O)N[C@@H](CC(=O)O)C(=O)N[C@H](C(=O)N[C@@H](CC(C)C)C(=O)N[C@@H](CO)C(=O)N[C@@H](CCCNC(=N)N)C(N)=O)[C@@H](C)CC)[C@@H](C)O)C(C)C)[C@@H](C)O` (some centres unmarked) [DHP[P^-1,P^0,R^12,T^15,R^21,L^27]hGRF(1-29)NH2] (X1-PYADAIFTNSYRRVLTQLSARRLLQDILSR-NH2) was “.14 % of std”; that for `CC[C@H](C)[C@H](NC(=O)[C@H](C)NC(=O)[C@H](CC(=O)O)NC(=O)[C@H](C)NC(=O)[C@H](Cc1ccc(O)cc1)NCC(O)CO)C(=O)N[C@@H](Cc1ccccc1)C(=O)N[C@H](C(=O)N[C@@H](CC(N)=O)C(=O)N[C@@H](CO)C(=O)N[C@@H](Cc1ccc(O)cc1)C(=O)N[C@@H](CCCNC(=N)N)C(=O)N[C@@H](CCCNC(=N)N)C(=O)N[C@H](C(=O)N[C@@H](CC(C)C)C(=O)N[C@H](C(=O)N[C@@H](CCC(N)=O)C(=O)N[C@@H](CC(C)C)C(=O)N[C@@H](CO)C(=O)N[C@@H](C)C(=O)N[C@@H](CCCNC(=N)N)C(=O)N[C@@H](CCCNC(=N)N)C(=O)N[C@@H](CC(C)C)C(=O)N[C@@H](CC(C)C)C(=O)N[C@@H](CCC(N)=O)C(=O)N[C@@H](CC(=O)O)C(=O)N[C@H](C(=O)N[C@@H](CC(C)C)C(=O)N[C@@H](CO)C(=O)N[C@@H](CCCNC(=N)N)C(N)=O)[C@@H](C)CC)[C@@H](C)O)C(C)C)[C@@H](C)O` (some centres unmarked) [DHP[R^12,T^15,R^21,L^27]hGRF(1-29)NH2] (H-[X3]ADAIFTNSYRRVLTQLSARRLLQDILSR-NH2) was “.8 % of std”. Then `CC[C@H](C)[C@H](NC(=O)[C@H](C)NC(=O)[C@H](CC(=O)O)NC(=O)[C@H](C)NC(=O)[C@H](Cc1ccc(O)cc1)NC(=O)[C@H](C)NC)C(=O)N[C@@H](Cc1ccccc1)C(=O)N[C@H](C(=O)N[C@@H](CC(N)=O)C(=O)N[C@@H](CO)C(=O)N[C@@H](Cc1ccc(O)cc1)C(=O)N[C@@H](CCCNC(=N)N)C(=O)N[C@@H](CCCNC(=N)N)C(=O)N[C@H](C(=O)N[C@@H](CC(C)C)C(=O)N[C@H](C(=O)N[C@@H](CCC(N)=O)C(=O)N[C@@H](CC(C)C)C(=O)N[C@@H](CO)C(=O)N[C@@H](C)C(=O)N[C@@H](CCCNC(=N)N)C(=O)N[C@@H](CCCNC(=N)N)C(=O)N[C@@H](CC(C)C)C(=O)N[C@@H](CC(C)C)C(=O)N[C@@H](CCC(N)=O)C(=O)N[C@@H](CC(=O)O)C(=O)N[C@H](C(=O)N[C@@H](CC(C)C)C(=O)N[C@@H](CO)C(=O)N[C@@H](CCCNC(=N)N)C(N)=O)[C@@H](C)CC)[C@@H](C)O)C(C)C)[C@@H](C)O` [[N-Me-A^0,R^12,T^15,R^21,L^27]hGRF(1-29)NH2] (H-[NMeA]YADAIFTNSYRRVLTQLSARRLLQDILSR-NH2), with “.17 % of std”.
